# Values of other authors in patent US12201639B2, “Aqueous oral pharmaceutical suspension compositions” (ReveraGen BioPharma, Inc., priority 2019, dated 2025).
# What was measured:
# glucocorticoid receptor = target: T1, glucocorticoid receptor (Homo sapiens, UniProt P04150); settings: pre-clinical data
# T1 sequence (P04150 1-777): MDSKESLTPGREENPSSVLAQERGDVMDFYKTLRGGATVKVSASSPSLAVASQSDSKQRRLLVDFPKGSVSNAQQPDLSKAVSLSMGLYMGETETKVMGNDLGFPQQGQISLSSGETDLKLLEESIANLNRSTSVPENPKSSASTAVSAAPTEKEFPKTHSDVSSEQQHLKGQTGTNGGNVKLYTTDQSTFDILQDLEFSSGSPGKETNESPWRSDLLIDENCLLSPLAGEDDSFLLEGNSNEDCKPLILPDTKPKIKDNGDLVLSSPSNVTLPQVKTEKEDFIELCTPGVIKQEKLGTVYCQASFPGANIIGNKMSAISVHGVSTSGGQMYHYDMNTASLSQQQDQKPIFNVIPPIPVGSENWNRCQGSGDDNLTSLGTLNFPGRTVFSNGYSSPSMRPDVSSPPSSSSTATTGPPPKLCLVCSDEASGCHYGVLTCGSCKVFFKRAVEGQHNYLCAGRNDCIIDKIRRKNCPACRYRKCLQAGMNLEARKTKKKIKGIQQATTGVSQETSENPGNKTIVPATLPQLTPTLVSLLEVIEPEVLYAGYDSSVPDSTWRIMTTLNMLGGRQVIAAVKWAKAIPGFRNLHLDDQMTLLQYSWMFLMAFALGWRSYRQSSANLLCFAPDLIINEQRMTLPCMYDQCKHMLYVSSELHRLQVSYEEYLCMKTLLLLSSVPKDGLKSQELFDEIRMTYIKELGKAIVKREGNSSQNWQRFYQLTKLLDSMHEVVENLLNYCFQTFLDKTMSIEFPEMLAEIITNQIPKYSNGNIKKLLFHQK
# [1] = test system: mouse models of inflammatory states; settings: compared with prednisolone
smiles,measurement,setting,value
"C[C@@H]1C[C@H]2[C@@H]3CCC4=CC(=O)C=C[C@]4(C)C3=CC[C@]2(C)[C@@]1(O)C(=O)CO [vamorolone, 17α,21-dihydroxy-16α-methylpregna-1,4,9 (11)-triene-3,20-dione]",binding to the glucocorticoid receptor,glucocorticoid receptor,binds potently
same,"side effect profiles (growth stunting, bone fragility) in mouse models",[1],dramatically improves side effect profiles
